Data: paper PMC3622158 (Photochemistry and photobiology, 2013)

Key:
[1] = test system: red blood cells (RBCs); assay: Fluorescence and bright field microscopy of RBCs and ghosts; format: cell-based; settings: Figure 2A; for association with RBCs prior to irradiation (fluorescence distribution): RBCs incubated with compound, fluorescence microscopy; for morphology of RBCs incubated with compound before irradiation: bright field microscopy
[2] = in aqueous solution; standards of the RNO assay; cited from earlier work
[3] = test system: red blood cells (RBCs); assay: Photohemolysis assay of fluorescently labeled CPPs; format: cell-based; settings: singlet oxygen quencher/inhibitor added to TMR-TAT and RBCs; Figure 1B
[4] = test system: red blood cells (RBCs)

Compound	association with RBCs prior to irradiation (fluorescence distribution) [1]	morphology of RBCs incubated with compound before irradiation [1]	singlet oxygen quantum yield [2]	effect on TMR-TAT mediated photohemolysis [3]	other results
CC1=C(CCC(=O)O)c2cc3[nH]c(cc4nc(cc5[nH]c(cc1n2)c(C)c5C(C)O)C(C)=C4C(C)O)c(C)c3CCC(=O)O (stereo not shown) [HP, hematoporphyrin]	strong fluorescence signals were present on the surface of the cells	formed echinocytes			
O=C1OC2(c3cc(I)c(O)c(I)c3Oc3c2cc(I)c(O)c3I)c2c(Cl)c(Cl)c(Cl)c(Cl)c21 [RB, Rose Bengal]	strong fluorescence signals were present on the surface of the cells	formed echinocytes	0.76		
CC(/C=C/C=C(\C)C(=O)O)=C\C=C\C=C(C)\C=C\C=C(/C)C(=O)O [crocetin]				significant decrease in photohemolytic activity	
O=C1OC2(c3ccccc31)c1cc(Br)c(O)c(Br)c1Oc1c2cc(Br)c(O)c1Br [eosin Y]			0.57		
CC(=O)Oc1c(C)c(C)c2c(c1C)CCC(C)(CCC[C@H](C)CCC[C@H](C)CCCC(C)C)O2 (stereo partly drawn) [tocopherol, α-tocopheryl acetate]				significant decrease in photohemolytic activity	
GRRRRRRRRR-NH2 [R9]					lysis with RB and peptide co-incubated ([4]; RB and R9 co-incubated during irradiation, same conditions, data not shown): 93±3%; lytic effect of peptides alone ([4]; in the dark or when cells were irradiated without RB present): not lytic by themselves
